# From patent US7297344B1, “Preparations for the promotion of wound healing in the upper respiratory tract and/or ear” (priority 1999, dated 2007)
# Test system: Human ciliated epithelium cells
# Assay: in-vitro ciliary vibration (ciliary activity) test
# Assay type: cell-based
# Protocol: The corresponding cells were exposed and incubated with 100 μl test substance at a temperature of 37° C.
structure (smiles),measurement,value
N=C(NCCCCCCNC(=N)NC(=N)Nc1ccc(Cl)cc1)NC(=N)Nc1ccc(Cl)cc1 [chlorohexidine],ciliary activity / ciliary vibration,decrease of the measured ciliary vibration
